Laboratory results as given in patent US12257247B2 (Monte Rosa Therapeutics AG, priority 2023, dated 2025).
Where two headings read alike, the source gives them in different places.

Target: T1, VAV1 (Homo sapiens, UniProt P15498+Q96SW2)
T1 construct: A heterozygous VAV1 C-terminal HiBiT knock-in pool was generated at Monte Rosa Therapeutics from a clonal Jurkat cell; endogenous in cells; host or cells: Jurkat clone stably expressing LgBiT, homozygous GSPT1-G575N; heterozygous VAV1-HiBiT knock-in pool
Assay: VAV1 degradation activity, VAV1-HiBiT knock-in Jurkat luminescence assay (Example A, Table 1)
Assay type: cell-based
Details: VAV1-HiBiT knock-in Jurkat cells; for Dmax: Jurkat
In short: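 Luminescence was measured at 6 and 24 h after adding compound (10 μM stock) to VAV1-HiBiT knock-in Jurkat cells, which had been pre-incubated ~16 h at 37° C. in RPMI/10% FBS containing Endurazine. EC50 values came from control-normalised responses fitted to a 3-parameter logistic model with hillslope fixed at 1.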

[1] = luminescence read at 6 and 24 hours, read-out: VAV1 Dmax %
[2] = luminescence read at 6 and 24 hours, read-out: VAV1 Dmax %, class
[3] = luminescence read at 6 and 24 hours, read-out: VAV1 DC50
[4] = luminescence read at 6 and 24 hours, read-out: VAV1 DC50 (nM), class
[5] = luminescence read at 6 and 24 hours after compound addition, read-out: VAV1 Dmax %
[6] = luminescence read at 6 and 24 hours after compound addition, read-out: VAV1 Dmax %, class
[7] = luminescence read at 6 and 24 hours after compound addition, read-out: VAV1 DC50
[8] = luminescence read at 6 and 24 hours after compound addition, read-out: VAV1 DC50 (nM), class

SMILES | Dmax [1] [%] | Dmax [2] [%] | DC50 [3] [nM] | DC50 [4] [nM] | Dmax [5] [%] | Dmax [6] [%] | DC50 [7] [nM] | DC50 [8] [nM]
[2H]c1c([2H])c(-n2ccccc2=O)c([2H])c([2H])c1-c1cccc(C2CCC(=O)NC2=O)c1Cl (centres unmarked) [Compound 462, 3-(2-chloro-3-(2,3,5,6-tetradeuterio-4-(2-oxo-1-pyridyl)phenyl)phenyl)piperidine-2,6-dione] | 95.5 | > 90 | 14.8 | ≤ 100 |  |  |  | 
O=C1CCC(c2cccc(-c3ccc(Cn4ccc(F)cc4=O)cc3)c2Cl)C(=O)N1 (centres unmarked) [Compound 170, 3-(2-chloro-4′-((4-fluoro-2-oxopyridin-1(2H)-yl)methyl)-[1,1′-biphenyl]-3-yl)piperidine-2,6-dione] | 94.2 | > 90 | 69.7 | ≤ 100 |  |  |  | 
O=C1CCC(c2cccc(-c3ccc(C(=O)N4CCCCC4)cc3)c2Cl)C(=O)N1 (centres unmarked) [Compound 223, 3-(2-chloro-4′-(piperidine-1-carbonyl)-[1,1′-biphenyl]-3-yl)piperidine-2,6-dione] | 96.6 | > 90 | 10.7 | ≤ 100 |  |  |  | 
CN1CC(=O)N(c2ccc(-c3cccc(C4CCC(=O)NC4=O)c3Cl)cc2)CC12CC2 (centres unmarked) [Compound 352, 3-(2-chloro-4′-(4-methyl-6-oxo-4,7-diazaspiro[2.5]octan-7-yl)-[1,1′-biphenyl]-3-yl)piperidine-2,6-dione] | 82.3 | 60 to 90 | 65.3 | ≤ 100 |  |  |  | 
CC(=O)Nc1ccc(-c2cccc(C3CCC(=O)NC3=O)c2Cl)cc1 (centres unmarked) [Compound 128] | 81.1 | 60 to 90 | 67.4 | ≤ 100 |  |  |  | 
CN1CCc2cc(-c3cccc(C4CCC(=O)NC4=O)c3Cl)ccc21 (centres unmarked) [Compound 488, 3-(2-chloro-3-(1-methylindolin-5-yl)phenyl)piperidine-2,6-dione] |  |  |  |  | 91 | > 90 | 17.2 | ≤ 100
O=C1CCC(c2cccc(-c3ccc4c(c3)CC(=O)N4Cc3cocn3)c2Cl)C(=O)N1 (centres unmarked) [Compound 505, 3-(2-chloro-3-(1-(oxazol-4-ylmethyl)-2-oxoindolin-5-yl)phenyl)piperidine-2,6-dione] |  |  |  |  | 80.7 | 60 to 90 | 86.9 | ≤ 100
O=C1CCC(c2cccc(-c3ccc(N4C(=O)OCC45CC5)nc3)c2Cl)C(=O)N1 (centres unmarked) [Compound 356, 3-(2-chloro-3-(6-(5-oxo-6-oxa-4-azaspiro[2.4]heptan-4-yl)pyridin-3-yl)phenyl)piperidine-2,6-dione] | 86 | 60 to 90 | 71.4 | ≤ 100 |  |  |  | 
O=C1CCC(c2cccc(-c3ccc(N4C(=O)OCCC45CCC5)nc3)c2Cl)C(=O)N1 (centres unmarked) [Compound 359, 3-(2-chloro-3-(6-(6-oxo-7-oxa-5-azaspiro-[3.5]nonan-5-yl)pyridin-3-yl)phenyl)piperidine-2,6-dione] | 95 | > 90 | 13.3 | ≤ 100 |  |  |  | 
O=C1CCC(c2cccc(-c3ccc(CN4CCc5ocnc5C4=O)cc3)c2Cl)C(=O)N1 (centres unmarked) [Compound 252] | 82.8 | 60 to 90 | 54.8 | ≤ 100 |  |  |  | 
O=C1CCC(c2cccc(-c3ccc(-n4ccccc4=O)cc3)c2Cl)C(=O)N1 (centres unmarked) [Compound 185, 3-(2-chloro-4′-(2-oxopyridin-1(2H)-yl)-[1,1′-biphenyl]-3-yl)piperidine-2,6-dione] | 97 | > 90 | 7 | ≤ 100 |  |  |  | 
O=C1CCC(c2cccc(-c3ccc(Cc4nccc(C(F)F)n4)cc3)c2Cl)C(=O)N1 (centres unmarked) [Compound 348, 3-(2-chloro-4′-((4-(difluoromethyl)pyrimidin-2-yl)methyl)-[1,1′-biphenyl]-3-yl)piperidine-2,6-dione] | 95.2 | > 90 | 11.7 | ≤ 100 |  |  |  | 
O=C1CCC(c2cccc(-c3ccc(Cc4ccncn4)cc3)c2Cl)C(=O)N1 (centres unmarked) [Compound 401, 3-(2-chloro-4′-(pyrimidin-4-ylmethyl)-[1,1′-biphenyl]-3-yl)piperidine-2,6-dione] | 94.4 | > 90 | 15 | ≤ 100 |  |  |  | 
O=C1CCC(c2cccc(-c3ccc(Cc4ncco4)nc3)c2Cl)C(=O)N1 (centres unmarked) [Compound 430, 3-(2-chloro-3-(6-(oxazol-2-ylmethyl)pyridin-3-yl)phenyl)piperidine-2,6-dione] | 72.6 | 60 to 90 | 261 | 100 to 1000 |  |  |  | 
CC1CCC(=O)N(c2ccc(-c3cccc(C4CCC(=O)NC4=O)c3Cl)cc2)C1 (centres unmarked) [Compound 314] | 96.1 | > 90 | 9.68 | ≤ 100 |  |  |  | 
O=C1CCC(c2cccc(-c3ccc(N4C(=O)CCC45CCC5)nc3)c2Cl)C(=O)N1 (centres unmarked) [Compound 394, 3-(2-chloro-3-(6-(6-oxo-5-azaspiro[3.4]octan-5-yl)pyridin-3-yl)phenyl)piperidine-2,6-dione] | 88.7 | 60 to 90 | 36.2 | ≤ 100 |  |  |  | 
O=C1CCC(c2cccc(-c3ccc(N4CCCCC4=O)cc3)c2Cl)C(=O)N1 (centres unmarked) [Compound 161, 3-(2-chloro-4′-(2-oxopiperidin-1-yl)-[1,1′-biphenyl]-3-yl)piperidine-2,6-dione] | 95.4 | > 90 | 10.1 | ≤ 100 |  |  |  | 
O=C1CCC(c2cccc(-c3ccc(CN4CC5CC5C4=O)cc3)c2Cl)C(=O)N1 (centres unmarked) [Compound 291] | 93.1 | > 90 | 21.3 | ≤ 100 |  |  |  | 
O=C1CCC(c2cccc(-c3ccc(N4C(=O)CCCC45CCC5)cc3)c2Cl)C(=O)N1 (centres unmarked) [Compound 339, 3-(2-chloro-4′-(6-oxo-5-azaspiro[3.5]nonan-5-yl)-[1,1′-biphenyl]-3-yl)piperidine-2,6-dione] | 98.2 | > 90 | 1.96 | ≤ 100 |  |  |  | 
O=C1CCC(c2cccc(-c3ccc(N4CCCNC4=O)cc3)c2Cl)C(=O)N1 (centres unmarked) [Compound 372, 3-(2-chloro-4′-(2-oxotetrahydropyrimidin-1(2H)-yl)-[1,1′-biphenyl]-3-yl)piperidine-2,6-dione] | 94.4 | > 90 | 10 | ≤ 100 |  |  |  | 
O=C1CCC(c2cccc(-c3ccc(S(=O)(=O)N4CCCC4)cc3)c2Cl)C(=O)N1 (centres unmarked) [Compound 438, 3-(2-chloro-4′-(pyrrolidin-1-ylsulfonyl)-[1,1′-biphenyl]-3-yl) piperidine-2,6-dione] | 90.5 | > 90 | 91.7 | ≤ 100 |  |  |  | 
Cn1ccc(COc2ccc(-c3ccc(Cl)c(C4CCC(=O)NC4=O)c3Cl)cc2)n1 (centres unmarked) [Compound 146, 3-(2,4-dichloro-4′-((1-methyl-1H-pyrazol-3-yl)methoxy)-[1,1′-biphenyl]-3-yl)piperidine-2,6-dione] | 81.5 | 60 to 90 | 8400 | > 1000 |  |  |  | 
O=C1CCC(c2cccc(-c3cnc(N4C(=O)CCCC45CC5)c(F)c3)c2Cl)C(=O)N1 (centres unmarked) [Compound 362, 3-(2-chloro-3-(5-fluoro-6-(5-oxo-4-azaspiro[2.5]octan-4-yl)pyridin-3-yl)phenyl)piperidine-2,6-dione] | 87.5 | 60 to 90 | 69.6 | ≤ 100 |  |  |  | 
O=C1CCC(c2cccc(-c3ccc(N4CCCC4=O)cc3)c2Cl)C(=O)N1 (centres unmarked) [Compound 162, 3-(2-chloro-4′-(2-oxopyrrolidin-1-yl)-[1,1′-biphenyl]-3-yl)piperidine-2,6-dione] | 73.1 | 60 to 90 | 283 | 100 to 1000 |  |  |  | 
O=C1CCC(c2cccc(-c3ccc(N4C(=O)OCCC45CC5)nc3)c2Cl)C(=O)N1 (centres unmarked) [Compound 351, 3-(2-chloro-3-(6-(5-oxo-6-oxa-4-azaspiro[2.5]octan-4-yl)pyridin-3-yl)phenyl)piperidine-2,6-dione] | 87 | 60 to 90 | 82.5 | ≤ 100 |  |  |  | 
COc1ccn(Cc2ccc(-c3cccc(C4CCC(=O)NC4=O)c3Cl)cc2)c(=O)c1 (centres unmarked) [Compound 175, 3-[2-chloro-3-[4-[(4-methoxy-2-oxo-1-pyridyl)methyl]phenyl]phenyl]piperidine-2,6-dione] | 87.1 | 60 to 90 | 31.6 | ≤ 100 |  |  |  | 
Cn1ccc(COc2ccc(-c3ccc(Cl)c(C4CCC(=O)NC4=O)c3F)cc2)n1 (centres unmarked) [Compound 145, 3-(4-chloro-2-fluoro-4′-((1-methyl-1H-pyrazol-3-yl)methoxy)-[1,1′-biphenyl]-3-yl)piperidine-2,6-dione] | 55.5 | < 60 | 13800 | > 1000 |  |  |  | 
O=C1CCC(c2cccc(-c3ccc4cn[nH]c4c3)c2Cl)C(=O)N1 (centres unmarked) [Compound 484, 3-(2-chloro-3-(1H-indazol-6-yl)phenyl)piperidine-2,6-dione] |  |  |  |  | 78.4 | 60 to 90 | 220 | 100 to 1000
Cc1ccn(C)c(=O)c1-c1ccc(-c2cccc(C3CCC(=O)NC3=O)c2Cl)cc1 (centres unmarked) [Compound 448, 3-(2-chloro-4′-(1,4-dimethyl-2-oxo-1,2-dihydropyridin-3-yl)-[1,1′-biphenyl]-3-yl)piperidine-2,6-dione] | 98.7 | > 90 | 1.63 | ≤ 100 |  |  |  | 
